From patent US20110312934A1, “2-ALKYL-6-CYCLOAMINO-3-(PYRIDIN-4-YL)IMIDAZO[1,2-B]-PYRIDAZINE DERIVATIVES, PREPARATION THEREOF, AND THERAPEUTIC APPLICATION THEREOF” (SANOFI-AVENTIS, priority 2008, published 2011)

Tests used:
[1] = biological target: T1, casein kinase 1 epsilon (CK1 epsilon) (Homo sapiens, UniProt P49674); assay: Filter-plate assay of ATP-33P, inhibition of phosphorylation of casein by CK1 epsilon; assay type: biochemical; conditions: ATP-33P filtration, cold ATP 10 μM final, 2 hours at ambient temperature, read-out: CK1 epsilon Cl50
T1 construct: Invitrogen Corporation (alternative)
Description: The capacity of the compounds of the invention to inhibit the phosphorylation of casein by casein kinase 1 epsilon and delta may be evaluated according to the procedure described in US 2005/0131012.
Filter-Plate Assay of ATP-^33P for the Screening of CK1 Epsilon Inhibitors:
The effect of the compounds on inhibition of the phosphorylation of casein by the enzyme casein kinase 1 epsilon (CK1 epsilon) is measured, using a casein assay with filtration of ATP-^33P in vitro.
Casein kinase 1 epsilon (0.58 mg/ml) is obtained via fermentation and purification processes performed according to methods that are well known to those skilled in the art, or may also be obtained from Invitrogen Corporation™ (human CK1 epsilon).
The compounds are tested at five different concentrations so as to generate IC50 values, i.e. the concentration at which a compound is capable of inhibiting the enzymatic activity by 50%, or alternatively the percentage of inhibition at a concentration of 10 micromolar.
“U”-bottomed Falcon plates are prepared by placing 5 μl of solutions of the compounds according to the invention at concentrations of 10, 1, 0.1, 0.01 or 0.001 μM in different wells. The solutions of the compounds according to the invention at these various concentrations are prepared by diluting in a test buffer (50 mM Tris, pH 7.5, […], 2 mM DTT and 1 mM EGTA) a stock solution in DMSO at a concentration of 10 mM. Next, 5 μl of dephosphorylated casein are added to a final concentration of 0.2 μg/μl, 20 μl of CK1 epsilon to a final concentration of 3 ng/μl, and 20 μl of ATP-^33P to a final concentration of 0.02 μCi/μl mixed with cold ATP (10 μM final—approximately 2×10^6 CPM per well). The final total test volume per well is equal to 50 μl.
The “U”-bottomed Falcon® test plate mentioned above is vortexed, and then incubated at ambient temperature for 2 hours. After 2 hours, the reaction is stopped by adding an ice-cold solution of 65 μl of ATP (2 mM) prepared in test buffer.
100 μl of the reaction mixture are then transferred from the “U”-bottomed Falcon® plate into Millipore® MAPH filter plates, preimpregnated with 25 μl of ice-cold 100% TCA. […]
The plates are left to dry overnight at ambient temperature. […] The radiation emitted by each well is then measured for 2 minutes in a Packard® Topcount NXT scintillation counter, in which the values of CPM/well are measured.
The percentage inhibition of the capacity of the enzyme to phosphorylate the substrate (casein) is determined for each concentration of compound tested. These inhibition data expressed as percentages are used to calculate the IC50 value for each compound compared with the controls.
The kinetic studies determined the KM value for ATP as being 21 μM in this test system.

[2] = tested on: Mper1-luc Rat-1 (P2C4) fibroblasts; assay: Circadian cell assay (mPer1 luciferase reporter, period prolongation); assay type: cell-based; conditions: effective concentration that induced a 1-hour prolongation of the circadian period, interpolated from hyperbolic curve
Description: Mper1-luc Rat-1 (P2C4) fibroblast cultures were prepared by dividing the cultures every 3-4 days (approximately 10-20% of confluence) on 150 cm^2 degassed polystyrene tissue culture flasks (Falcon® #35-5001) and maintained in growth medium [EMEM (Cellgro #10-0,0-CV); 10% foetal bovine serum (FBS; Gibco #16000-044); and 50 I.U./ml of penicillin-streptomycin (Cellgro #30-001-CI)] at 37° C. and under 5% CO2.
Cells obtained from Rat-1 fibroblast cultures at 30-50% of confluence as described above were co-transfected with vectors containing the selection marker for resistance to zeocin for a stable transfection and a luciferase reporter gene controlled by the mPer-1 promoter. After 24 to 48 hours, the cultures were divided on 96-well plates and maintained in growth medium supplemented with 50-100 μg/ml of zeocin (Invitrogen® #45-0430) for 10-14 days. The zeocin-resistant stable transfectants were evaluated for the expression of the reporter by adding 100 μM luciferin (Promega® #E1603®) to the growth medium and by assaying the luciferase activity on a TopCount® scintillation counter (Packard Model #C384V00). The Rat-1 cell clones expressing both zeocin resistance and lucerifase activity controlled by mPer1 were serum-shock synchronized with 50% horse serum [HS (Gibco® #16050-122)] and the activity of the circadian reporter was evaluated. The P2C4 clone of Mper1-luc Rat-1 fibroblasts was selected to test the compound.
Mper1-luc Rat-1 (P2C4) fibroblasts at 40-50% of confluence, obtained according to the protocol described above, were plated out onto 96-well opaque tissue culture plates (Perkin Elmer® #6005680). The cultures are maintained in growth medium supplemented with 100 μg/ml of zeocin (Invitrogen #45-0430) until they reach 100% of confluence (48-72 h). The cultures were then synchronized with 100 μl of synchronization medium [EMEM (Cellgro #10-0,0-CV); 100 I.U./ml of penicillin-streptomycin (Cellgro #30-001-C1); 50% HS (Gibco #16050-122)] for 2 hours at 37° C. and under 5% CO2. After synchronization, the cultures were rinsed with 100 μl of EMEM (Cellgro #10-010-CV) for 10 minutes at ambient temperature. After rinsing, the medium was replaced with 300 μl of CO2 independent medium [CO2I (Gibco #18045-088); 2 mM L-glutamine (Cellgro #25-005-C1); 100 U.I./ml of penicillin-streptomycin (Cellgro #30-001-C1); 100 μM luciferin (Promega #E 1603)]. […]
The two methods produced a virtually identical period estimation on a range of circadian periods. […] The data were analysed by adjusting a hyperbolic curve to the data expressed as change of period (y-axis) as a function of the concentration of the test compound (x-axis) in the XLfit™ software and the CE Delta (t+1 h) was interpolated from this curve.

[3] = biological target: T2, human CK1 delta (Homo sapiens, UniProt P48730); assay: FRET Z'Lyte kinase assay, CK1 delta; assay type: biochemical; conditions: peptide substrate SER/THR 11 2 μM, ATP 4 times the KM, read-out: CK1 delta Cl50
T2 construct: purchased Invitrogen Corporation PV3665
Excerpt: The capacity of the compounds of the invention to inhibit the phosphorylation of casein by casein kinase 1 epsilon and delta may be evaluated using a FRET (Fluorescence Resonance Energy Transfer) fluorescence test with the aid of the Z'Lyte™ kinase assay Kit (reference PV3670; Invitrogen Corporation™) according to the manufacturer's instructions.
The casein kinases 1 used are obtained from Invitrogen Corporation (human CK1 epsilon PV3500 and human CK1 delta PV3665).
A peptide substrate, labelled at both ends with a fluorophore donor group (coumarin) and a fluorophore acceptor group (fluorescein), constituting a FRET system is phosphorylated in the presence of ATP by casein kinase 1 epsilon or delta in the presence of increasing concentrations of compounds of the invention.
The mixture is treated with a site-specific protease that specifically cleaves the peptide substrate to form two fluorescent fragments having a large fluorescence emission ratio.
The fluorescence observed is thus related to the capacity of the products of the invention to inhibit the phosphorylation of the peptide substrate by casein kinase 1 epsilon or casein kinase 1 delta. […]
The emitted fluorescence is measured at wavelengths of 445 and 520 nm (excitation at 400 nm).

T1 sequence (P49674 whole entry): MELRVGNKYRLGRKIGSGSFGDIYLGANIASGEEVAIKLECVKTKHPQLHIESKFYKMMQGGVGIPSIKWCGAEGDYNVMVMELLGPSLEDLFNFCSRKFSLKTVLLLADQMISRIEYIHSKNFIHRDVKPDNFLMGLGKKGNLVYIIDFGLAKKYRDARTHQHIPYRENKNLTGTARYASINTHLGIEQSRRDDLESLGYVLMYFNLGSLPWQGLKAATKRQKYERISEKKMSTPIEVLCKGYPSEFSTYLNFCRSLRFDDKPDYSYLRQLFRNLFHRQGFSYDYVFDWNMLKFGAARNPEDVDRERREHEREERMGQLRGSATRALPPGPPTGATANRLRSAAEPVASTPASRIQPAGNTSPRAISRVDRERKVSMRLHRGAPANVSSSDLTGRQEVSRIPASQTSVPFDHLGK
T2 sequence (P48730 whole entry): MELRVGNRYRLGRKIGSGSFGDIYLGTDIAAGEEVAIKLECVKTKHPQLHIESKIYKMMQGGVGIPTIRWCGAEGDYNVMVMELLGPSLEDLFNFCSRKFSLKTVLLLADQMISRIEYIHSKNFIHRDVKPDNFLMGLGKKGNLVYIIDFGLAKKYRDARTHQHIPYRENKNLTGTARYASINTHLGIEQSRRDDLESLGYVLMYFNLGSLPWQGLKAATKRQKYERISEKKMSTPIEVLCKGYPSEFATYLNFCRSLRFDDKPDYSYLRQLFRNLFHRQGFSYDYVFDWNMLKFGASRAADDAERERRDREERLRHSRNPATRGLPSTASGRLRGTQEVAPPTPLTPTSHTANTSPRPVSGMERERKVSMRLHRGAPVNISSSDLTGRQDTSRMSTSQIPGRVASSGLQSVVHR

Row | IC50 [1] | IC50 [3] | SMILES | CE Delta (t + 1 h) [2] | melting point
1 | 292 nM |  | CC1(C)CN(c2ccc3nc(C4CC4)c(-c4ccnc(F)c4)n3n2)CCN1 [Compound 53, 2-Cyclopropyl-6-(3,3-dimethylpiperazin-1-yl)-3-(2-fluoropyridin-4-yl)imidazo[1,2-b]pyridazine] | 319 nM | 
2 |  | < 1 nM | Cc1nc2ccc(N3C[C@@H](C)N[C@@H](C)C3)nn2c1-c1ccncc1 [Compound 54, 6-(cis-3,5-Dimethylpiperazin-1-yl)-2-methyl-3-pyridin-4-ylimidazo[1,2-b]pyridazine] |  | 
3 | 78 nM |  | Cc1nc2ccc(N3CCC4(CCCNC4)CC3)nn2c1-c1ccncc1 [Compound 78, 9-(2-Methyl-3-pyridin-4-yl-imidazo[1,2-b]pyridazin-6-yl)-2,9-diazaspiro[5.5]undecane] | 515 nM | 

Row | SMILES | IC50 [1] | IC50 [3] | CE Delta (t + 1 h) [2] | melting point
4 | Cc1nc2ccc(N3CC4CNCC4C3)nn2c1-c1ccncc1 (centres unmarked) [Compound 66, 6-Hexahydropyrrolo[3,4-c]pyrrol-2(1H)-yl-2-methyl-3-pyridin-4-ylimidazo[1,2-b]pyridazine] | 13 nM |  | 633 nM | 153 to 155 °C
